This is an account of results in EP4653431A1, “PYRAZOLE DERIVATIVE, AND PHARMACEUTICALLY ACCEPTABLE SALT, STEREOISOMER, PHARMACEUTICAL COMPOSITION AND USE THEREOF” (Starg (Wuhan) Pharmaceutical Technology Co., Ltd, priority 2023, dated 2024).

The structures appear in SMILES notation. Structures can show the parent of a compound that is named as a salt.

For orientation: IC50 means the concentration that gives 50% inhibition. A lower IC50 goes with greater potency in that assay. As a reminder, the AUC(0-t) is exposure summed from dosing to a finite time, without extrapolation to infinity. A word on the half-life: it is how long it takes for the measured level to halve. Low values mean rapid decline, high ones slow decline. The term Cmax denotes the highest concentration seen after dosing. For orientation: Tmax means the time at which the peak concentration occurs.

For one data set, the system named is OVCAR-3 cells. Description: In vitro OVCAR-3 cell viability assay (CellTiter-Glo). The data set is classed as cell-based. To be noted: Homo sapiens, OVCAR-3, 168 h, 7 days incubation. The protocol:
1640 medium, fetal bovine serum, and penicillin/streptomycin antibiotics were purchased from Wisent. CellTiter-Glo (cell viability chemiluminescence assay reagent) was purchased from Promega. The OVCAR-3 cell line was purchased from Nanjing Cobioer Biosciences Co., Ltd. Envision multimode plate reader (PerkinElmer) was used.
OVCAR-3 cells were seeded into a white 384-well plate, with 40 µL of cell suspension containing 300 OVCAR-3 cells per well. The cell plate was incubated overnight in a CO2 incubator.
The test compound was serially diluted 5-fold using a multichannel pipette to the 8th concentration, i.e., from 2000 µM to 0.00512 µM. The experiment was set up with duplicate wells. 78 µL of culture medium was added to an intermediate plate, and 2 µL per well of the gradient-diluted compound was transferred to the corresponding position in the intermediate plate. After mixing, 10 µL per well of the mixture was transferred to the cell plate. The concentration range of the compound transferred to the cell plate was from 10 µM to 0.026 nM. The cell plate was incubated in a CO2 incubator for 7 days. Another cell plate was prepared, and the signal value was read on the day of compound addition to serve as the maximum value (Max in the equation below) for data analysis. 10 µL per well of CellTiter-Glo reagent was added to the cell plate, and the cell plate was incubated at room temperature for 10 minutes to stabilize the luminescence signal. The signal was read using the multimode plate reader.
10 µL per well of CellTiter-Glo reagent was added to the cell plate, and the cell plate was incubated at room temperature for 10 minutes to stabilize the luminescence signal. The signal was read using the multimode plate reader.
The raw data were converted to inhibition rates using the equation (Sample-Min)/(Max-Min)×100%. The IC50 value was obtained by fitting the data to a four-parameter curve (using log(inhibitor) vs. response -- Variable slope model in GraphPad Prism). Table 1 provides the inhibitory activity of the compounds of the present application against OVCAR-3 cell proliferation.
In general terms: In ATP-based viability assays light output follows the ATP content of the culture.

Data set [1] can be described thus: Pharmacokinetic study, oral and intravenous administration in mice. The arrangement: species or system ICR mice. To be noted: male, ICR, mouse, in vivo. The protocol:
This study used ICR male mice as test animals. The plasma concentrations of the test compounds and the reference compound in mice were quantitatively determined at different time points using the LC-MS/MS method following intravenous injection or oral administration to evaluate the pharmacokinetic characteristics of the test compounds in mice.
ICR mice (male, 20-30 g, 6-8 weeks old, Beijing Charles River).
A clear solution of the test compound was administered to ICR mice (fasted overnight or fed) via tail vein injection or oral gavage. For intravenous injection, blood samples (50 µL) were collected via cheek puncture at 0 h (pre-dose) and at 0.083, 0.25, 0.5, 1, 2, 4, 6, 8, and 24 h post-dose into anticoagulant tubes containing sodium heparin. The mixtures were thoroughly vortexed at 4 °C and centrifuged at 6000 rpm for 3 minutes. For oral gavage, blood samples were collected via cheek puncture at 0 h (pre-dose) and at 0.083, 0.25, 1, 2, 4, 6, 8, and 24 h post-dose into anticoagulant tubes containing sodium heparin. The mixtures were vortexed thoroughly, and centrifuged at 6000 rpm for 3 minutes. Plasma drug concentrations were determined using the LC-MS/MS method. Pharmacokinetic parameters were calculated using Phoenix WinNonlin 8.2.0 pharmacokinetic software with a non-compartmental model and linear-logarithmic trapezoidal rule.

In data set [2] the test system is Human Ovarian Cancer OVCAR-3 Cell Subcutaneous Xenograft Tumor. Description: In vivo pharmacodynamic (efficacy) study in OVCAR-3 subcutaneous xenograft tumor model. Conditions: oral, BID*21 days, OVCAR-3 xenograft in CB17-SCID mice. The protocol:
Cell Culture: OVCAR-3 cells (human ovarian cancer cell line, sourced from Medsyin's cell bank) were cultured in RPMI-1640 medium (ATCC modified, Gibco) supplemented with 20% FBS (Gibco) and 1% penicillin/streptomycin (P.S.), in vitro at 37 °C with 5% CO2. The cells were passaged twice weekly. OVCAR-3 cells in the exponential growth phase were collected and resuspended in a mixture of PBS and Matrigel (Corning) to prepare a cell suspension with a concentration of 5×10^7 cells/mL for mouse inoculation. The volume ratio of PBS to Matrigel was 1:1.
Animals: CB17-SCID mice, female, 6-8 weeks old, weighing 18-21 grams. A total of 40 mice were inoculated. The mice were provided by Shanghai Lingchang Biotechnology Co., Ltd.
Tumor Inoculation: Each mouse was subcutaneously injected in the right flank with 0.2 mL of OVCAR-3 tumor cells (10×10^6 cells).
Experimental Metrics: The experimental metrics aimed to evaluate whether tumor growth was inhibited, delayed, or cured. The tumor diameter was measured twice weekly using a vernier caliper. The tumor volume was calculated using the formula: V=0.5a×b^2, where a and b represent the longest and shortest diameters of the tumor, respectively.
Antitumor metric TGI (%) reflects the tumor growth inhibition rate. TGI (%) was calculated as follows: TGI (%) = [(1 - (average tumor volume at the end of drug administration in a given group - average tumor volume at the start of drug administration in that group)) / (average tumor volume at the end of treatment in a vehicle control group - average tumor volume at the start of treatment in the vehicle control group)] × 100%.

As to `CON(C)Cc1nn2ccnc(Nc3cc([C@H]4CC[C@@H](OC(=O)NC(C)C)C4)[nH]n3)c2c1F` [Compound 6], it took 104 nM to reach half-maximal inhibition in the data set with OVCAR-3 cells (IC50). In addition, the bioavailability in data set [1] was 196%. In data set [1] (iv, 5 mg/kg), this compound had an exposure AUC(0-t) of 13200 ng·h/mL, a Vd of 0.52 L/kg, a clearance of 6.35 mL/min/kg and a half-life of 0.93 h. For the same compound, in data set [1] (po, 30 mg/kg), the AUC(0-t) is 155000 ng·h/mL, the highest concentration (Cmax) was 41100 ng/mL and the Tmax turned out to be 1.08 h.
Consider `CON(C)Cc1nn2ccnc(Nc3cc([C@H]4CC[C@@H](OC(=O)NC(C)C)C4)[nH]n3)c2c1C` [Formate salt of compound 2], for which the IC50 with OVCAR-3 cells came to 124 nM. In addition, the results for the TGI in data set [2] (35 mg/Kg), in data set [2] (70 mg/Kg) and in data set [2] (140 mg/Kg) were 104.1%, 114.1% and 114.6%, respectively.
As to `CONCc1nn2ccnc(Nc3cc([C@H]4CC[C@@H](OC(=O)NC(C)C)C4)[nH]n3)c2c1F` [Compound 5], the IC50 in the data set with OVCAR-3 cells came to 309 nM. The bioavailability in data set [1] came out at 129%. In data set [1] (iv, 5 mg/kg), this compound showed an exposure AUC(0-t) of 6770 ng·h/mL, a Vd of 7.58 L/kg, a clearance of 13 mL/min/kg and a half-life of 6.48 h. Besides, in data set [1] (po, 30 mg/kg), the area under the curve AUC(0-t) amounted to 52600 ng·h/mL, the highest concentration (Cmax) was 22100 ng/mL and the Tmax amounted to 0.19 h.
